# Data published in patent US6524616B1, “COMPOSITIONS AND METHODS FOR TREATING OR PREVENTING NEURODEGENERATION AND COGNITIVE DECLINE AND DYSFUNCTION ASSOCIATED WITH ALZHEIMER'S DISEASE, AGING, OTHER DEMENTIA RELATED DISORDERS AND ESTROGEN DEFICIENCY RELATED CONDITIONS” (priority 1999, dated 2003).
# Columns and labels:
# [1] = system: patients with Alzheimer's disease; details: cited from earlier work; for Effects on Cognitive Function: cognitive decline in Alzheimer's disease
# aged ovariectomized rats = assay: Radial arm maze test, Example 2 (chronic estrogen-deficient aged rats); format: in vivo
# Experimental: Thirty-six retired breeder female rats (8-10 months old) were purchased from Harlan Sprague Dawley, Inc. The rats were housed in separate cages and were initially maintained on a 12:12 hour light/dark cycle with access to Chow diet and water ad libitum. All procedures done on the animals were approved by the Animal Care and Use Committee of Wake Forest University. After bilateral ovariectomy, the rats were fed with a casein/lactalbumin-based control diet for about 12 months (until about 2 years of age). The rats were then evaluated in a 8-arm radial arm maze to determine their baseline working memory. […] The rats were tested in the maze at 1 and 3 months after the initiation of the treatments.
# After 3 months of treatment, each of the 3 groups were divided randomly into two subgroups. One subgroup was given Hup A orally (0.3 mg/Kg of body weight) in addition to their control regimen or treatment with SPEs or E2 and the other subgroup received no Hup A. After 3 weeks of Hup A supplementation, working memory was reevaluated.
# A pellet of fudge brownie (Little Debbie, Mckee Foods, Collegedale, Tenn.) was placed in each of the 8 food wells located at the end of each arm to serve as a reward. The rats were allowed to explore the maze for 10 min or until all eight rewards were eaten. The training session was terminated when the rats were able to eat all 8 rewards within 10 min.
# After the training, the rats were tested once per day 4 consecutive days per week for two weeks. One day prior to the test, and during the first three test days, the food intake was reduced to 25% of the normal 40 g/day food intake. A visit to an arm was recorded if the rat reached three-fourths of the length of the arm. The maze performance was recorded as the number of correct choices in the first 8 visits. A mistake was counted if a rat reentered an arm from which the rat has already eaten the bait. A test session of a rat was terminated when the rat ate all eight rewards or 10 min had elapsed. […]
# [2] = system: ovariectomized retired breeder female rats; assay: Radial arm maze test, Example 1 (10 months of treatment); format: in vivo; details: oral in diet, given alone
# Experimental: Eight-four retired breeder females (Sprague-Dawley), weighing 300-360 g (8-10 months old), were purchased from Harlan Sprague Dawley, Inc. The rats were housed in separate cages and were initially maintained on a 12:12 hour light/dark cycle with access to Chow diet and water ad libitum. All procedures done on the animals were approved by the Animal Care and Use Committee of Wake Forest University. Upon arrival, the rats were weighed, and then randomized into the 12 treatment groups using a stratified randomization scheme, stratifying by body weight.
# Shown in Table 5 below is the 3×4 factorial study design and includes the number of rats that finished the maze tests. […]
# After the training, the rats were tested twice per day (in the morning and afternoon) 4 consecutive days per week for two weeks. […] A visit to an arm was recorded if the rat reached three-fourths of the length of the arm. The maze performance was recorded as the number of correct choices in the first 8 visits. A mistake was counted if a rat reentered an arm from which the rat has already eaten the bait. […]
# All data were analyzed using BMDP Statistical Software, version 7.0 (Los Angeles, Calif.). Uterine weights expressed as a percentage of body weight and body weight violated the assumption of equal variances, and were not normally distributed. […] Body weight, uterine weight, and maze data were analyzed by 2-way ANOVA. […]
# [3] = in vivo; cited from earlier work
# patients = details: Tacrine 100 mg/day; cited from earlier work
# liver = details: in vivo; cited from earlier work
# BuChE (blood) = details: read-out: IC50 BuChE, in vitro; cited from earlier work
compound,measurement,setting,value
CC(C[N+](C)(C)C)OC(N)=O (centres unmarked) [Bethanecol],Effects on Cognitive Function,[1],Unchanged/Slight Improvement
"C/C=C1\[C@H]2C=C(C)C[C@]1(N)c1ccc(=O)[nH]c1C2 [Huperzine A, (5R, 9R, 11E)-5-amino-11-ethylidene-5,6,9,10-tetrahydro-7-methyl-5,9-methanocycloocta(b)pyridin2(1H)-one]",Effects on Cognitive Function,[1],Significant Improvement
same,cognitive function (proportion of animals with improved working memory),aged ovariectomized rats; Hup A 0.3 mg/Kg orally for 3 weeks added to E2 treatment,slightly improved
same,cognitive function (proportion of animals with improved working memory),aged ovariectomized rats; Hup A 0.3 mg/Kg orally for 3 weeks added to SPE treatment,considerably improved
O=C1CCCN1CC#CCN1CCCC1 [Oxotremorine],Effects on Cognitive Function,[1],Unchanged
Nc1ccncc1 [4-aminopyridine],Effects on Cognitive Function,[1],Unchanged/Slight Improvement
"CC12CCC3c4ccc(O)cc4CCC3C1CCC2O (stereo not drawn) [estradiol, 17-β estradiol]",maze performance (working memory) versus Ctl group,"aged ovariectomized rats; at both 1 and 3 months of treatment, after 12 months of estrogen-deficiency",significantly better
same,performance of the radial arm maze tests,[2],dosedependent improvement
CNC(=O)Oc1ccc2c(c1)[C@]1(C)CCN(C)[C@@H]1N2C [Physostigmine],half-life,[3],short half-life
Phosphatidylserine,Effects on Cognitive Function,[1],Slight Improvement
CN1CCCC1c1cccnc1 (centres unmarked) [Nicotine],Effects on Cognitive Function,[1],Slight Improvement
COC(=O)C1=CCCN(C)C1 [Arecoline],Effects on Cognitive Function,[1],Unchanged/Slight Improvement
CC[C@@H]1C(=O)OC[C@@H]1Cc1cncn1C [Pilocarpine],Effects on Cognitive Function,[1],Unchanged
Lecithin,Effects on Cognitive Function,[1],Unchanged/Slight Improvement
Nc1c2c(nc3ccccc13)CCCC2 [Tacrine],Abdominal Cramps,patients,38 Per Cent of Patients
same,Diarrhea,patients,23 Per Cent of Patients
same,Dizziness,patients,12 Per Cent of Patients
same,Excessive Sweating,patients,4 Per Cent of Patients
same,Nausea,patients,25 Per Cent of Patients
same,Polyuria,patients,25 Per Cent of Patients
same,Ptyalsim,patients,10 Per Cent of Patients
same,Vomitin,patients,15 Per Cent of Patients
same,Effects on Cognitive Function,[1],Unchanged to Significant Improvement
same,improving symptoms of Alzheimer's disease,[1]; in vivo,mildly effective
same,liver toxicity,liver,toxic to the liver
